Measured values reported in publication PMC6155315, “Enantiomeric Aβ peptides inhibit the fluid shear stress response of PIEZO1” (Scientific Reports, 2018).
“And” between values parts separate entries of the source, which are not always exact repeats. Equal values may be shown once. Positions of bridges follow the written chain, without caps; N, C: chain ends. Residues, ends and D or L forms follow the SMILES beside them.

Assays:
hPIEZO1 = target: T1, hPIEZO1 (Homo sapiens, UniProt Q92508); assay: Fluid shear stress assay: shear-induced [Ca2+]i increase (Fluo-4 AM) in hP1-CL cells; format: cell-based; settings: for Shear response of hP1-CL cells after cytoskeletal disruption: concentration not given; for Effect on fluid shear [Ca2+]i response: hP1-CL cells
T1 construct: expressed in transfected cells
Description: We first created a cell line that expressed a fluorescently tagged version of human PIEZO1 called hPIEZO1-1591-EGFP[5]. […] The cDNA was integrated into the genome of HEK293T cells using a lentivirus vector.
The microfluidic chambers had glass coverslip bottoms coated with human fibronectin (Invitrogen)[20] and fluid flow guided by PDMS channels. Cells were cultured in the chamber for 3 days, with daily medium changes. On the experimental day, chambers were rinsed with isotonic solution (75 mM NaCl, 5 mM KCl, 2 mM MgCl2, 1 mM CaCl2 and 10 mM HEPES, adjusted to 320 mOsm with mannitol). A stock of Fluo-4 AM was diluted to 5 µM in isotonic saline and incubated with cells for 10–30 min at 37C°. Chambers were then rinsed twice with isotonic solution and incubated for 8 minutes to complete Fluo-4 AM de-esterification. A single fluid shear stress pulse of ~15 dynes/cm^2 for 8–10 ms was applied to the chamber using a high-speed pressure servo (HSPC-1 from ALA). Peptide stocks were kept at 4 °C until used, dissolved to desired concentrations, and immediately added to cells.
Images of the cellular response to shear stress were captured by an EM-CCD camera (C9100 model, Hamamatsu) at a nominal rate of 1 Hz. To quantify the response, the average intensity in the field of view was background subtracted. Image intensity was adjusted for the rate of bleaching. Each condition was repeated in four separate chambers, and the results averaged. The responses were normalized to the control experiments, and the inhibition was calculated as previously described. The data points were fit by a Hill plot with the equation:1 y=Vmax⁎x^n/(k^n+x^n) where Vmax is the maximum response, n is the Hill coefficient, and k is related to the concentration at half-maximal response.

PIEZO1 channels = format: cell-based, human; settings: 5 µM perfused, 50 mV, 60 mmHg pulses; 3 independent experiments
Description: We examined whether the Aβ could inhibit PIEZO1 currents in the patch. We formed outside/out patches from the hP1 cell line and tested whether 10 µM of Aβ (1-40) or Aβ (1-42) (Peptide Method I) inhibited channel activity, a concentration that blocked the shear response.
Cell-attached and outside-out patches were used as previously described[47]. All experiments were at room temperature. Pressure or suction steps were applied to the membranes using a high speed pressure clamp (ALA)[48]. The bath solution contained (in mM): 150 KCl, 10 HEPES, 1 MgCl2, 1 CaCl2 at pH 7.4 that clamped the resting membrane potential to zero. The pipette solution was 150 mM KCl at pH 7.4.
Shown above are typical results from single patches. Left- a positive pressure pulse of 60 mmHg at 50 mV lasting 500 msec was applied to an O/O patch every 2 seconds. After 12 pulses (24 seconds, black trace is the average of 12 pulses), 10 µM of L Aβ(1-40) was applied by perfusion and activity was monitored for 30 seconds (red trace is the average of 15 pulses). […] Center- The effect of Aβ(1-42) on a different patch (identical conditions described above). 12 pressure pulses (black trace) established a baseline response. […] 6 pressure pulses (50 mV, 60 mmHg) were applied to establish the baseline response (black). […]

hP1-mCherry-CL cells = assay: Actin stress, cpst-FRET actin force probe, in PIEZO1-overexpressing cells; format: cell-based, human; settings: for Effect on actin stress: 37 °C, 15 cells from 3 experiments
Description: Cell movement in the presence of PIEZO1 channels appears to rely on cytoskeletal integrity and plasticity, consistent with the ability of cytoskeletal disrupting agents to prevent PIEZO1 activation (Supplementary Fig. 4A). We examined forces within the cytoskeleton during channel inhibition. By transient transfection, we introduced a genetically encoded optical probe of actin stress (cpst-FRET) into stable hP1-mCherry-CL cells[19] (Fig. 4A), resulting in probe expression into F-actin. […] For each experiments described below, we analyzed and averaged (with SD) 15 cells from 3 different experiments. […] 10 pM of monomerized scrambled Aβ peptide (black squares) also had no effect on actin stress.
Figure 4 D-GsMTx4 and the enantiomeric Aβ(1-40) peptides inhibit Ca^2+ entry, and increase cytoskeleton stress in hP1-mCherry-CL cells. hP1-mCherry-CL cells were transiently transfected with cDNA encoding the actin force probe to monitor peptide-induced changes to the cell’s cytoskeleton. […] Each data point is the average of 15 cells from 3 different experiments (with SD). A baseline response is established in the first 30 minutes (37 °C and 5% CO2). Addition (green bar) of D-GsMTx4 (5 uM, black squares) or monomeric enantiomeric Aβ(1-40) peptides (10 pM; L, red circles; D, blue triangles) elicits immediate increases in actin stress. […] Bath removal of extracellular Ca^2+ elicits the largest effect (40%, blue triangles). Data points are 15 cells from 3 independent experiments with SD. Panel D summarizes Aβ responses at the 60 min time point (paired t-test). […] Before and after intensities were analyzed by paired t-test ([…]). […]
(§1) To measure cytoskeletal stress, hP1-mCherry-CL cells were transiently transfected with cDNA encoding the cpst-actin FRET probe. The FRET ratio of […] was measured by simultaneous imaging using an image splitter. Baseline actin stress was measured at 37 °C in isotonic solution for 30 min before peptide addition (see above).

HEK293T cells = assay: Actin stress, actin force probe, in unmodified control cells; format: cell-based
Description: (Panel A) HEK293T cells were monitored for 30 min to establish a baseline.
as §1

hP1-CL cells = assay: Cell migration (wound healing) assay with peel-off PDMS barrier; format: cell-based, human; settings: 5 µM
Description: PIEZO1 channels are involved in neurite extension[16] and other types of cell motility. This led us to test the effects of Aβ peptides on hP1-CL motility in a wound healing assay. Cells were grown to confluence on glass coverslips half-coated with PDMS (Polydimethylsiloxane). The PDMS layer was then peeled off allowing us to accurately measure the collective cell migration rates across the newly exposed glass surface.
Figure 3 Aβ peptides inhibit migration of hP1-CL cells. Cell migration was measured as cell movement on glass cover slips in polystyrene dishes at 37 °C and 5% CO2. A PDMS barrier to cell growth was created on the cover slip. When cells reached confluency, the barrier was peeled off. Images of the resulting, initially sharp confluent cell boundary were captured at 0.003 Hz over 5 hours. […] Bottom left panel summarizes the mean cell migration distances as a function of time. […] Three independent experiments were averaged (SEM).
Half of a glass coverslip was coated with catalyzed PDMS (polydimethylsiloxane) (9:1) and allowed to harden. Cells were cultured on the complete coverslip kept in tissue culture dishes. After achieving confluency, the PDMS was peeled from the glass. The location of the front edge of the confluent cells was monitored for 5 hr at 37 C° with 5% CO2-supplemented DMEM media containing 10% bovine serum. […]

T1 sequence (Q92508 whole entry): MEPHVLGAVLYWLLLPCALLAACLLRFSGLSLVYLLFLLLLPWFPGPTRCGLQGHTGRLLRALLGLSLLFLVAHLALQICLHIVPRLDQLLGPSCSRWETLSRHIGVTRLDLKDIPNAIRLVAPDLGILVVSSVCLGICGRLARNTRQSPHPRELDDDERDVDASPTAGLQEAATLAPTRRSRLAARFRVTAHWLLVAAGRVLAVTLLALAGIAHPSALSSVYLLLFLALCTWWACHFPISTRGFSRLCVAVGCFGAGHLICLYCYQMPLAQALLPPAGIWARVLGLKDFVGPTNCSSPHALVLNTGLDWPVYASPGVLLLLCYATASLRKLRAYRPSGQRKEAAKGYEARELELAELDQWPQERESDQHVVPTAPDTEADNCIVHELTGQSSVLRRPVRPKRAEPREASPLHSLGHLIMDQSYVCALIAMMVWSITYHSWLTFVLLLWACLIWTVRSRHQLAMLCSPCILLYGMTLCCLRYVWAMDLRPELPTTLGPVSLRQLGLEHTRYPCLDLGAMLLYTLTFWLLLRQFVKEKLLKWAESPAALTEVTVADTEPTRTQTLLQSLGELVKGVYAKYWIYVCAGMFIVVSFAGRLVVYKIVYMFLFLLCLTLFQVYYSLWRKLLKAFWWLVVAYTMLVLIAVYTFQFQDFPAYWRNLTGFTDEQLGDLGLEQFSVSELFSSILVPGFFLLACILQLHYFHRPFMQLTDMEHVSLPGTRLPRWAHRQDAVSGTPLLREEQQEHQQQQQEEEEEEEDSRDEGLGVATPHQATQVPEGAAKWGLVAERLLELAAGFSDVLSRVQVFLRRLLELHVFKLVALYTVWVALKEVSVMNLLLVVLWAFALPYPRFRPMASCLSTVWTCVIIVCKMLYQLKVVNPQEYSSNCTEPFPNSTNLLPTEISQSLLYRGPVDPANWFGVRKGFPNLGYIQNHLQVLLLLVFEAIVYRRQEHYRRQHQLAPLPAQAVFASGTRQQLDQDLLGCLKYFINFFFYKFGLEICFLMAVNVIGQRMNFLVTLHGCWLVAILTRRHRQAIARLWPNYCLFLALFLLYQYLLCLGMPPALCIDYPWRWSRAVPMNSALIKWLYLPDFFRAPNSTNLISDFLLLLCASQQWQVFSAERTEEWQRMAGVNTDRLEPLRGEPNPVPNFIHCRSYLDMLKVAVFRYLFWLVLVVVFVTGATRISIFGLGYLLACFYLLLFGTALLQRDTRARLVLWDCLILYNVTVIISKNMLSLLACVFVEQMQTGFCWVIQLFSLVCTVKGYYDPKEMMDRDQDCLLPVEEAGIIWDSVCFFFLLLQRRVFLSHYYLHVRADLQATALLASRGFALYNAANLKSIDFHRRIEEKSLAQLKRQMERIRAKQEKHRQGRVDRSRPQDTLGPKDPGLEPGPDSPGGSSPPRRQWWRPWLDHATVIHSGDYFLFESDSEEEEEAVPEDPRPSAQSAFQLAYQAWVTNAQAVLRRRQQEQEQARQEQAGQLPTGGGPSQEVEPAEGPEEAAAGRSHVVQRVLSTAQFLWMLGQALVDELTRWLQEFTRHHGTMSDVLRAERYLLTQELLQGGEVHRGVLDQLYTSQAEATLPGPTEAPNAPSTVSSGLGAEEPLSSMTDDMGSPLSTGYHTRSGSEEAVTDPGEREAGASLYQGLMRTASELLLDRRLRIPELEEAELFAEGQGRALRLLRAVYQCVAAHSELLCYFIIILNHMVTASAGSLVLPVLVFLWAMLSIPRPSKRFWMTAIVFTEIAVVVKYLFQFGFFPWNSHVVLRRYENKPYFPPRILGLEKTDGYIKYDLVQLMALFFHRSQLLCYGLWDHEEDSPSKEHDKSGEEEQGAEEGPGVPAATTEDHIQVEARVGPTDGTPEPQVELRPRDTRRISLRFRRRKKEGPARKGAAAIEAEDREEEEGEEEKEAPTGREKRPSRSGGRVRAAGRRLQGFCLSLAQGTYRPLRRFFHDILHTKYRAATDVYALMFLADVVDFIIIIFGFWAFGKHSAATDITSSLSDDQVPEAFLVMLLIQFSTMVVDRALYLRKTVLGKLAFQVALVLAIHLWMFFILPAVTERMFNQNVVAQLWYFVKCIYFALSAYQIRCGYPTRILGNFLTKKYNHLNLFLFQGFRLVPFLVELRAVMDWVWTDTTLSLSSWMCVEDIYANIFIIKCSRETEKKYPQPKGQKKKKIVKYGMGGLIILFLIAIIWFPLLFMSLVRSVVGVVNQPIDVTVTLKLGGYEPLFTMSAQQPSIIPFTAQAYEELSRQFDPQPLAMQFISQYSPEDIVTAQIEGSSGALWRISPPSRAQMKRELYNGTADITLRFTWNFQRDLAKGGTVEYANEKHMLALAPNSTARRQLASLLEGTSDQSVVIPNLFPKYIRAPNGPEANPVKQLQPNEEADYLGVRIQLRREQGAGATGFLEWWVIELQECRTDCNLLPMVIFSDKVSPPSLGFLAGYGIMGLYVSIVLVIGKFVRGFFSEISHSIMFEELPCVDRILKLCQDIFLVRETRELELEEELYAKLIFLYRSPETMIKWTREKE

Molecule: C=C1[C@@H](C)[C@H]2[C@H](Cc3ccccc3)NC(=O)[C@]23[C@H](OC(C)=O)/C=C/[C@@](C)(O)C(=O)[C@@H](C)C/C=C/[C@H]3[C@@H]1O [cytochalasin D]
- Shear response of hP1-CL cells after cytoskeletal disruption (hPIEZO1; Supplementary Fig. 3A): unresponsive to fluid shear

Molecule: CC(C)C[C@@H]1NC(=O)[C@@H](NC(=O)CN)CSSC[C@@H]2NC(=O)[C@@H]3CSSC[C@@H](C(=O)N[C@@H](CC(N)=O)C(=O)N[C@@H](Cc4ccccc4)C(=O)N[C@@H](CO)C(=O)N[C@@H](Cc4ccccc4)C(N)=O)NC(=O)[C@H](CC(C)C)NC(=O)[C@H](CCCCN)NC(=O)[C@H](Cc4ccccc4)NC(=O)[C@H](CC(C)C)NC(=O)[C@H](CCCCN)NC(=O)[C@H](CO)NC(=O)[C@H](CSSC[C@H](NC(=O)[C@H](CCCCN)NC(=O)[C@H](Cc4c[nH]c5ccccc45)NC(=O)[C@H](Cc4c[nH]c5ccccc45)NC(=O)[C@H](Cc4ccccc4)NC(=O)[C@H](CCC(=O)O)NC1=O)C(=O)N[C@@H](CC(N)=O)C(=O)N1CCC[C@H]1C(=O)N[C@@H](CC(N)=O)C(=O)N[C@@H](CC(=O)O)C(=O)N[C@@H](CC(=O)O)C(=O)N[C@@H](CCCCN)C(=O)N3)NC(=O)[C@H](CCCCN)NC(=O)[C@H](CC(C)C)NC(=O)[C@H](CCCCN)NC(=O)[C@@H]1CCCN1C(=O)[C@H](CCCNC(=N)N)NC2=O [GsMTx4] (H-GCLEFWWKCNPNDDKCCRPKLKCSKLFKLCNFSF-NH2; disulfide 2-17, 9-23, 16-30; N-terminus and C-terminus assumed)
- Inhibition of PIEZO1 outside/out patch current (PIEZO1 channels): 0.67 ± 0.07
- Effect on fluid shear [Ca2+]i response (hPIEZO1; 5 µM, Supplementary Fig. 3A): inhibited the shear stress response
- Reversibility of channel inhibition on washout (hPIEZO1; shear stress assay, Aβ: within 20 min or with shear stress raised to 25 dynes/cm2): readily restored
- Hill coefficient (hPIEZO1; titration of shear stress response of hP1-CL cells): 1.9 and ~ 1.9

Molecule: D-GsMTx4
- Effect on actin stress (hP1-mCherry-CL cells; 5 µM added after 30 min baseline): increase in actin stress
- Effect on F-actin in lamellipodia (hP1-mCherry-CL cells; actin force probe images, Fig. 4E,F, 20 lamellipodia from 4 cells): drop of F-actin tension and its retraction from the lamellipodia
- Effect on actin stress in HEK293T cells (HEK293T cells; 5 µM, 15 cells from 3 experiments): no effect
- Effect on fluid shear [Ca2+]i response (hPIEZO1; 5 µM, Supplementary Fig. 3A): complete inhibition
- Effect on hP1-CL cell migration (hP1-CL cells): blocked
- Slowing of cell migration (hP1-CL cells; hP1-CL cells, 5 hr, 37 °C, 3 independent experiments): over 10 fold

Molecule: COc1cc2c(c(OC)c1OC)-c1ccc(OC)c(=O)cc1[C@@H](NC(C)=O)CC2 [colchicine]
- Shear response of hP1-CL cells after cytoskeletal disruption (hPIEZO1; Supplementary Fig. 3A): unresponsive to fluid shear

Molecule: HiLyte Aβ(1-42): L-Aβ(1-42) fluorescently labeled at the N-terminus with HiLyte (555), purchased (Anaspec) and monomerized
- Effect on shear stress response of the hPIEZO1 cell line (hPIEZO1; 5 pM and 100 pM monomerized peptide, 4 independent experiments): inhibited
- Effect on PIEZO1-mediated Ca2+ response to shear stress (hPIEZO1; 100 pM monomerized peptide, 4 independent experiments): completely inhibited

Molecule: AEGDSHVLKEGAYMEIFDVQGHVFGGKIFRVVDLGSHNVA [scrambled L-Aβ(1-40), scrambled Aβ(1-40) peptide purchased from Anaspec, used as control]
- Effect on actin stress (hP1-mCherry-CL cells; 10 pM monomeric peptide added after 30 min baseline): no effect
- Effect on actin stress probe FRET in HEK293T cells (HEK293T cells; concentration not given, after 30 min baseline): no change
- Effect on fluid shear [Ca2+]i response (hPIEZO1; 10 µM peptide, 4 independent experiments): lack of PIEZO1 inhibition
